This is an account of results in the supplement of paper PMC11061612.

Common to all, as to test: Bliss excess, mean over the matrix (fraction); higher = more synergy
The subject of assay [1] is PC-3 (Prostate Carcinoma). Summed up: (§1)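 Cell lines in DMEM/F12 or RPMI with 10% FBS were plated in 1536-well plates, held 24 hours at 37°C, 5% CO2, then given two-drug dose matrices for 72 hours (DMSO typically 0.2%). Viability was read by CellTiter-Glo 2.0 luminescence and scaled as inhibition from 0 (vehicle wells) to 1 (blank wells). Combination Emax is the second-highest inhibition in the matrix; Bliss excess is observed combination effect minus expected EA + EB − EA·EB, EA and EB being single-agent effects.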

Assay [2] relates to NCCIT (Other Solid Carcinomas). In outline:
as §1

The subject of assay [3] is H9 (T-Cell Non-Hodgkin's Lymphoma). Summed up: as §1
The subject of assay [4] is HCC1187 (Breast Carcinoma). In outline:
as §1

The test system of assay [5] is MOG-G-CCM (Low Grade Glioma). In outline: as §1
For assay [6], the system named is MN-60 (B-Lymphoblastic Leukemia). Summed up: as §1
In assay [7] the test system is NCI-H526 (Small Cell Lung Carcinoma). Summed up: as §1
The subject of assay [8] is SUP-B15 (B-Lymphoblastic Leukemia). Summed up: as §1
The test system of assay [9] is SK-GT-4 (Esophageal Adenocarcinoma). Summed up: as §1
Assay [10] concerns CHSA8926 (Chondrosarcoma). In outline:
as §1

The test system of assay [11] is ST486 (Burkitt's Lymphoma). Summed up:
as §1

In assay [12] the test system is VMRC-RCZ (Kidney Carcinoma). Summed up:
as §1

For assay [13], the system named is NCI-H3122 (Lung Adenocarcinoma). Summed up: as §1
The test system of assay [14] is DMS-114 (Small Cell Lung Carcinoma). In outline: as §1
The subject of assay [15] is DAN-G (Pancreatic Carcinoma). In outline: as §1
The subject of assay [16] is CW-2 (Colorectal Carcinoma). Summed up: as §1
In assay [17] the test system is HCC1419 (Breast Carcinoma). Summed up: as §1
Assay [18] has as its system KYSE-270 (Esophageal Squamous Cell Carcinoma). In outline: as §1
The subject of a further assay is RD (Rhabdomyosarcoma). Summed up:
as §1

Assay [19] concerns KU812 (Chronic Myelogenous Leukemia). In outline: as §1

SMILES strings stand for the structures.

As to `CN(CCO)CC[C@H](CSc1ccccc1)Nc1ccc(S(=O)(=O)NC(=O)c2ccc(N3CCC([C@@H](O)c4ccccc4-c4ccc(Cl)cc4)CC3)cc2)cc1S(=O)(=O)C(F)(F)F` [AZD4320] + Cc1cc2ncnn2cc1Nc1ncc2c(n1)n(C1CCOCC1)c(=O)n2C [AZD7648] (first compound max 1 µM, 7x7, partner max 10 µM), the Bliss excess in assay [1] is -0.0432; in [2], -0.059; in assay [3], 0.0046; in [4] it was -0.025; in assay [5], -0.0387; in assay [6], -0.0177. Moreover, the Bliss excess in [7] is -0.0069; in [8], -0.0072; in assay [9], -0.0413; in [10], 0.0101; in assay [11], -0.0066; in assay [12] it was -0.058. Moreover, the Bliss excess in assay [13] was -0.0676; in [14], -0.0514; in [15] it was -0.0484; in [16], -0.006; in [17], -0.133; in [18] it was -0.0197. In addition, the Bliss excess with RD (Rhabdomyosarcoma) was -0.0189.
Consider `Cc1c2c(nn1C)CSCc1cc(n(C)n1)CSc1cc(c3ccccc3c1)OCCCc1c(C(=O)O)n(C)c3c-2c(Cl)ccc13` [AZD5991] + C1CN(CCC1(C(=O)N[C@@H](CCO)C2=CC=C(C=C2)Cl)N)C3=NC=NC4=C3C=CN4 [Capivasertib] (first compound max 1 µM, 7x7, partner max 3 µM), for which the Bliss excess is -0.0404 in assay [1]; 0.076 in [2]; -0.0514 in assay [3]; -0.0023 in assay [4]; -0.0178 in [5]; 0.0165 in assay [6]. In addition, the Bliss excess in assay [7] is 0.0139; in [8] it was -0.0025; in assay [9], -0.0213; in [10], 0.0131; in assay [12], -0.0347; in assay [13] it was 0.0144. Further, the Bliss excess was 0.0696 in [14]; -0.0535 in assay [15]; 0.0132 in assay [16]; 0.0163 in assay [17]; 0.0421 in assay [18]; -0.0011 in [19]. Besides, the Bliss excess with RD (Rhabdomyosarcoma) turned out to be 0.0465.
On to `Cc1c2c(nn1C)CSCc1cc(n(C)n1)CSc1cc(c3ccccc3c1)OCCCc1c(C(=O)O)n(C)c3c-2c(Cl)ccc13` [AZD5991] + CN(C)CCCOc1ccc(-c2ccc3ncc4c(c3c2)n(C2CCOCC2)c(=O)n4C)cn1 [AZD0156] (first compound max 1 µM, 7x7, partner max 1 µM), for which the Bliss excess in assay [2] is -0.039; in [3] it was 0.0314; in assay [4] it was -0.0266; in assay [5], -0.0067; in [6] it was 0.0047; in assay [7], 0.0054. The Bliss excess is -0.0117 in assay [8]; -0.031 in [9]; 0.0117 in assay [10]; -0.0716 in [11]; -0.018 in assay [12]; 0.0187 in [13]. Besides, the Bliss excess in assay [14] was 0.003; in assay [15] it was 0.0141; in [16], 0.0041; in [17] it was 0.0105; in assay [18], 0.0347; in assay [19], -0.0788. Further, the Bliss excess in the assay with RD (Rhabdomyosarcoma) is 0.0095.
With `Cc1c2c(nn1C)CSCc1cc(n(C)n1)CSc1cc(c3ccccc3c1)OCCCc1c(C(=O)O)n(C)c3c-2c(Cl)ccc13` [AZD5991] + Cc1cc2ncnn2cc1Nc1ncc2c(n1)n(C1CCOCC1)c(=O)n2C [AZD7648] (first compound max 1 µM, 7x7, partner max 10 µM), the Bliss excess in assay [1] was -0.135; in assay [2], -0.0494; in assay [4], -0.0299; in assay [5], -0.0394; in assay [6] it was 0.0011; in assay [7], -0.0042. Further, the Bliss excess in assay [8] was 0.0099; in [9] it was -0.0651; in [10], -0.0376; in assay [11], -0.053; in assay [12] it was -0.0405; in assay [13] it was -0.0563. In addition, the Bliss excess in assay [14] is 0.0346; in [15], -0.0402; in assay [16] it was 0.0242; in [17], -0.0196; in assay [18] it was -0.0342; in [19], -0.0046. The Bliss excess in the assay with RD (Rhabdomyosarcoma) was -0.049.
Turning to `COc1cc2ncnc(Nc3ccc(F)c(Cl)c3)c2cc1OCCCN1CCOCC1` [Gefitinib] + CC(C)n1c(=O)n(C)c2cnc3cc(F)c(-c4ccc(OCCCN5CCCCC5)nc4)cc3c21 [AZD1390] (first compound max 10 µM, 7x7, partner max 0.3 µM), the Bliss excess in assay [1] is -0.0643; in assay [2], -0.0466; in [3], -0.0723; in assay [4], -0.04; in assay [5] it was -0.0271; in assay [6], -0.0444. Moreover, the Bliss excess in [7] is -0.0342; in assay [8] it was -0.0673; in assay [9], -0.0846; in assay [10], -0.113; in assay [11], -0.0874; in [12], -0.0621. For the same molecule, the Bliss excess in assay [13] is -0.0775; in assay [14] it was -0.0579; in [16], -0.031; in assay [17], -0.0216; in [18] it was -0.003; in [19], -0.0436. For the same molecule, the Bliss excess in the assay on RD (Rhabdomyosarcoma) was -0.0699.
As for `CC(=O)c1c(C)c2cnc(Nc3ccc(N4CCNCC4)cn3)nc2n(C2CCCC2)c1=O` [Palbociclib] + Cn1cnc2c(F)c(Nc3ccc(Br)cc3Cl)c(C(=O)NOCCO)cc21 [Selumetinib] (first compound max 10 µM, 7x7, partner max 10 µM), the Bliss excess in assay [1] is -0.0627; in assay [2], -0.0291; in [3], -0.0868; in assay [4], -0.0142; in assay [5], -0.0511; in assay [6], -0.0405. Also, the Bliss excess in [7] was -0.0213; in assay [8] it was 0.0147; in [9], -0.0126; in assay [10] it was -0.0697; in [11], 0.151; in assay [12], -0.0367. The Bliss excess is -0.0306 in assay [13]; -0.0065 in assay [14]; -0.0077 in assay [15]; 0.0099 in assay [16]; -0.0512 in assay [18]; -0.0536 in assay [19]. Further, the Bliss excess in the assay with RD (Rhabdomyosarcoma) turned out to be 0.0455.
Regarding `C[C@@H](c1ccc2nccn2c1)n1nnc2ncc(-c3cnn(C)c3)nc21` [Savolitinib] + CN(CC[C@H](CSC1=CC=CC=C1)NC2=C(C=C(C=C2)S(=O)(=O)NC(=O)C3=CC=C(C=C3)N4CCC(CC4)[C@H](C5=CC=CC=C5C6=CC=C(C=C6)Cl)O)S(=O)(=O)C(F)(F)F)CCO [AZD4320] (first compound max 1 µM, 7x7, partner max 1 µM), the Bliss excess in assay [1] was -0.0418; in [3], -0.0425; in assay [4] it was -0.0091; in assay [8] it was -0.0182; in assay [10], -0.0241; in assay [15], -0.0378. The Bliss excess in assay [17] was -0.0736; with RD (Rhabdomyosarcoma), -0.0348.
`CC(=O)Nc1cccc(-n2c(=O)n(C3CC3)c(=O)c3c(Nc4ccc(I)cc4F)n(C)c(=O)c(C)c32)c1` [Trametinib] + Cc1nc(-c2cn3c(n2)-c2ccc(-c4cnn(C(C)(C)C(N)=O)c4)cc2OCC3)n(C(C)C)n1 [Taselisib] (first compound max 1 µM, 7x7, partner max 10 µM): the Bliss excess in assay [1] is -0.0138; in assay [2], 0.0184; in [3], 0.0402; in assay [4], 0.0462; in assay [5], 0.0182; in assay [6], 0.0265. Moreover, the Bliss excess in [7] was -0.0308; in assay [8] it was 0.539; in [9] it was 0.103; in assay [11], -0.033; in [12], 0.0186; in assay [13], 0.116. Besides, the Bliss excess in assay [14] was 0.079; in [15], 0.124; in assay [16], 0.122; in [17], 0.032; in assay [18], 0.176; in [19] it was 0.111. Moreover, the Bliss excess in the assay on RD (Rhabdomyosarcoma) was 0.261.
